Experimental findings from patent US5527781A, “4-O-(aminoglycosyl)- or 4,6-di-O-(aminoglycosyl)-2,5-dideoxy-5,5-difluorostreptamine derivatives” (Zaidan Hojin Biseibutsu Kagaku Kenkyu Kai, priority 1990, dated 1996) are described below.

Series [1] concerns Staphylococcus aureus 209P. As to the kind of experiment: MIC, standard serial dilution method. The format is cell-based. To be noted: Mueller-Hinton agar, 37° C.
Series [2] relates to Staphylococcus aureus Ap01. As to the kind of experiment: MIC, standard serial dilution method. The format is cell-based. To be noted: resistance mechanism ANT(4'), Mueller-Hinton agar, 37° C.
The test system of a further series is Bacillus subtilis PCI219. As to the kind of experiment: MIC, standard serial dilution method. It counts as cell-based. The note with it: Mueller-Hinton agar, 37° C.
For series [3], the system named is Corynebacterium bovis 1810. As to the kind of experiment: MIC, standard serial dilution method. The note with it: Mueller-Hinton agar, 37° C. The format is cell-based.
The test system of another series is Escherichia coli K-12. As to the kind of experiment: MIC, standard serial dilution method. The note with it: K12; Escherichia coli K-12; Mueller-Hinton agar, 37° C; read-out: MIC. The format is cell-based.
The next series relates to Escherichia coli K-12 R5. As to the kind of experiment: microbe, parasite or virus in culture. It counts as cell-based. To be noted: K12R5.
Series [4] relates to Escherichia coli K-12 ML 1629. As to the kind of experiment: microbe, parasite or virus in culture. To be noted: K12ML1629. The format is cell-based.
The test system of series [5] is Escherichia coli K-12 LA 290 R55. As to the kind of experiment: microbe, parasite or virus in culture. It counts as cell-based. The note with it: K12LA290R55; Escherichia coli K-12 LA 290 R55; resistance mechanism ANT(2"); Mueller-Hinton agar, 37° C.
A further series deals with Escherichia coli JR225. As to the kind of experiment: microbe, parasite or virus in culture. The format is cell-based. The note with it: resistance mechanism AAC(3), Mueller-Hinton agar, 37° C.
Series [6] relates to Escherichia coli JR66/W677. As to the kind of experiment: microbe, parasite or virus in culture. The format is cell-based. The note with it: resistance mechanism APH(3')-II, ANT(2"), Mueller-Hinton agar, 37° C.
A further series deals with Mycobacterium 607. As to the kind of experiment: MIC, standard serial dilution method. It counts as cell-based. To be noted: Mueller-Hinton agar, 37° C.
Series [7] concerns Klebsiella pneumoniae 22#3038. As to the kind of experiment: MIC, standard serial dilution method. The format is cell-based. The note with it: resistance mechanism APH(3')-II, ANT(2"), Mueller-Hinton agar, 37° C.
The test system of a further series is Proteus rettgeri GN 311. As to the kind of experiment: MIC, standard serial dilution method. It counts as cell-based. The note with it: Providencia rettgeri, GN311; Proteus rettgeri GN 311; Mueller-Hinton agar, 37° C; read-out: MIC.
A further series has as its system Serratia marcescens. As to the kind of experiment: MIC, standard serial dilution method. It counts as cell-based. The note with it: Mueller-Hinton agar, 37° C.
Another series deals with Providencia sp. Pv 16. As to the kind of experiment: MIC, standard serial dilution method. The note with it: SP.PV16, resistance mechanism AAC(2'), Mueller-Hinton agar, 37° C. The format is cell-based.
Series [8] relates to Pseudomonas aeruginosa A3. As to the kind of experiment: MIC, standard serial dilution method. The format is cell-based. The note with it: Mueller-Hinton agar, 37° C.
The subject of series [9] is Pseudomonas aeruginosa GN 315. As to the kind of experiment: MIC, standard serial dilution method. It counts as cell-based. The note with it: GN315; Pseudomonas aeruginosa GN 315; resistance mechanism AAC(6'); Mueller-Hinton agar, 37° C; read-out: MIC.
The nature of another series: in vivo. The note with it: mouse, iv, pH 7. The text has this:
Further, in order to estimate acute toxicity of the compound of the general formula (I) according to this invention, some examples of the compounds of this invention were independently dissolved in water to prepare aqueous solutions (as adjusted to pH 7 by addition of hydrochloric acid). […] The tested compounds of this invention are expressed by the same abbreviations as in Table 1. […] The comparative compounds as tested are also expressed by the same abbreviations as in Table 1.

The mark [10] stands for this setting: Escherichia coli K-12 ML 1629, resistance mechanism APH(3')-I, Mueller-Hinton agar, 37° C, read-out: MIC.
[11] abbreviates: Escherichia coli K-12 R5, resistance mechanism AAC(6'), Mueller-Hinton agar, 37° C.

Molecules are shown by their SMILES. ≈ marks a conversion by molar mass, not a printed value. Where two headings read alike, the source gives them in different places.

Turning to `CN[C@@H]1[C@@H](O)[C@@H](O[C@H]2[C@H](NC(=O)[C@@H](O)CCN)C[C@H](N)[C@@H](O[C@H]3O[C@H]([C@@H](C)NC)CC[C@H]3N)C2(F)F)OC[C@]1(C)O` [5FF-Genta-C1-AHB, 1-N-[(S)-4-amino-2-hydroxybutyryl]-5-deoxy-5,5-difluorogentamicin C1], the MIC was 1.56 µg/mL (≈ 2.61 µM) in series [1]; 25 µg/mL (≈ 41.8 µM) in series [2]; 1.56 µg/mL (≈ 2.61 µM) against Bacillus subtilis PCI219; 0.78 µg/mL (≈ 1.3 µM) in series [3]; less than 0.2 µg/mL in the series with Escherichia coli K-12; 0.78 µg/mL (≈ 1.3 µM) with Escherichia coli K-12 R5 (Escherichia coli). Further, the MIC in series [4] (setting [10]) was 1.56 µg/mL (≈ 2.61 µM); in series [5], 0.39 µg/mL (≈ 0.651 µM); against Escherichia coli JR225, less than 0.2 µg/mL; in series [6] it was 3.12 µg/mL (≈ 5.21 µM); with Mycobacterium 607, 3.12 µg/mL (≈ 5.21 µM); in [7], 1.56 µg/mL (≈ 2.61 µM). Also, the MIC with Proteus rettgeri GN 311 worked out at 1.56 µg/mL (≈ 2.61 µM); in the series with Serratia marcescens, 3.12 µg/mL (≈ 5.21 µM); against Providencia sp. Pv 16, 6.25 µg/mL (≈ 10.4 µM); in series [8] it was 6.25 µg/mL (≈ 10.4 µM); in series [9], 100 µg/mL (≈ 167 µM).
Broadly, the LD50 is the dose expected to kill half of the subjects tested. Low readings indicate a more toxic substance, high ones a less toxic substance. Consider `CN[C@@H]1[C@@H](O)[C@@H](O[C@H]2[C@H](N)C[C@H](N)[C@@H](O[C@H]3O[C@H](CN)CC[C@H]3N)C2(F)F)OC[C@]1(C)O` [5FF-Genta-C1a, 5-deoxy-5,5-difluorogentamicin C1a], for which the MIC in series [1] was 0.78 µg/mL (≈ 1.66 µM); in series [2], 3.12 µg/mL (≈ 6.64 µM); with Bacillus subtilis PCI219 it was 0.39 µg/mL (≈ 0.831 µM); in series [3] it was 0.78 µg/mL (≈ 1.66 µM); in the series with Escherichia coli K-12 it was less than 0.2 µg/mL; in the series on Escherichia coli K-12 R5 (setting [11]), 12.5 µg/mL (≈ 26.6 µM). Further, the MIC in series [4] (setting [10]) amounted to 0.39 µg/mL (≈ 0.831 µM); in series [5], 3.12 µg/mL (≈ 6.64 µM); in the series with Escherichia coli JR225, 3.12 µg/mL (≈ 6.64 µM); in [6], 1.56 µg/mL (≈ 3.32 µM); in the series on Mycobacterium 607, 0.78 µg/mL (≈ 1.66 µM); in series [7], 1.56 µg/mL (≈ 3.32 µM). In addition, the MIC in the series on Proteus rettgeri GN 311 was found to be 0.39 µg/mL (≈ 0.831 µM); against Serratia marcescens, 6.25 µg/mL (≈ 13.3 µM); in the series with Providencia sp. Pv 16 it was 12.5 µg/mL (≈ 26.6 µM); in [8], 0.78 µg/mL (≈ 1.66 µM); in [9] it was 100 µg/mL (≈ 213 µM). Besides, in “in vivo”, the LD50 is approximately 240 mg/kg.
As to `CN[C@@H]1[C@@H](O)[C@@H](O[C@H]2[C@H](NC(=O)[C@@H](O)CCN)C[C@H](N)[C@@H](O[C@H]3O[C@H]([C@@H](C)N)CC[C@H]3N)C2(F)F)OC[C@]1(C)O` [5FF-Genta-C2-AHB, 1-N-[(S)-4-amino-2-hydroxybutyryl]-5-deoxy-5,5-difluorogentamicin C2], the MIC in series [1] is 0.78 µg/mL (≈ 1.33 µM); in series [2] it was 12.5 µg/mL (≈ 21.4 µM); against Bacillus subtilis PCI219, 0.2 µg/mL (≈ 0.342 µM); in [3], 0.2 µg/mL (≈ 0.342 µM); with Escherichia coli K-12, less than 0.2 µg/mL; in the series with Escherichia coli K-12 R5 (setting [11]), 3.12 µg/mL (≈ 5.34 µM). Moreover, the MIC was 0.39 µg/mL (≈ 0.667 µM) in series [4] (setting [10]); 0.2 µg/mL (≈ 0.342 µM) in series [5]; less than 0.2 µg/mL against Escherichia coli JR225; 0.78 µg/mL (≈ 1.33 µM) in series [6]; 3.12 µg/mL (≈ 5.34 µM) against Mycobacterium 607; 1.56 µg/mL (≈ 2.67 µM) in series [7]. Moreover, the MIC in the series on Proteus rettgeri GN 311 is 0.78 µg/mL (≈ 1.33 µM); against Serratia marcescens, 3.12 µg/mL (≈ 5.34 µM); in the series on Providencia sp. Pv 16, 6.25 µg/mL (≈ 10.7 µM); in series [8], 3.12 µg/mL (≈ 5.34 µM); in [9] it was 100 µg/mL (≈ 171 µM).
Turning to `CCN[C@@H]1C[C@H](N)[C@@H](O[C@H]2OC(CN)=CC[C@H]2N)C(F)(F)[C@H]1O[C@H]1OC[C@](C)(O)[C@H](NC)[C@H]1O` [5FF-Netilmicin, 5-deoxy-5,5-difluoronetilmicin], the MIC was 3.12 µg/mL (≈ 6.3 µM) in series [1]; 12.5 µg/mL (≈ 25.2 µM) in [2]; 0.39 µg/mL (≈ 0.787 µM) against Bacillus subtilis PCI219; 1.56 µg/mL (≈ 3.15 µM) in series [3]; less than 0.2 µg/mL in the series with Escherichia coli K-12; 50 µg/mL (≈ 101 µM) in the series with Escherichia coli K-12 R5 (setting [11]). Besides, the MIC stood at 0.78 µg/mL (≈ 1.57 µM) in [4] (Escherichia coli); 0.39 µg/mL (≈ 0.787 µM) in series [5]; 1.56 µg/mL (≈ 3.15 µM) in the series with Escherichia coli JR225; 0.78 µg/mL (≈ 1.57 µM) in [6]; 1.56 µg/mL (≈ 3.15 µM) against Mycobacterium 607; 1.56 µg/mL (≈ 3.15 µM) in [7]. Besides, the MIC with Proteus rettgeri GN 311 is 1.56 µg/mL (≈ 3.15 µM); against Serratia marcescens, 6.25 µg/mL (≈ 12.6 µM); against Providencia sp. Pv 16, 12.5 µg/mL (≈ 25.2 µM); in [8], 1.56 µg/mL (≈ 3.15 µM); in [9], more than 100 µg/mL. The compound further showed a median lethal dose (LD50) in the series “in vivo” of 47 mg/kg.
